Consider one compound from US20180104361A1, “DYE MOLECULE AND DYE PREPARATIONS, IN PARTICULAR FOR USE IN SURGICAL METHODS OF OPHTHALMIC SURGERY AND FOR DYEING PROTEINS” (AL.CHI.MI.A. S.R.L., priority 2015, published 2018).

Molecules are shown by their SMILES. A value given as a limit tells only on which side of the number the result lay.

For one data set, the target named is T1, egg white albumin (Gallus gallus, UniProt P01012).
T1 construct: from tissue; host or cells: egg white
T1 sequence (P01012 1-386): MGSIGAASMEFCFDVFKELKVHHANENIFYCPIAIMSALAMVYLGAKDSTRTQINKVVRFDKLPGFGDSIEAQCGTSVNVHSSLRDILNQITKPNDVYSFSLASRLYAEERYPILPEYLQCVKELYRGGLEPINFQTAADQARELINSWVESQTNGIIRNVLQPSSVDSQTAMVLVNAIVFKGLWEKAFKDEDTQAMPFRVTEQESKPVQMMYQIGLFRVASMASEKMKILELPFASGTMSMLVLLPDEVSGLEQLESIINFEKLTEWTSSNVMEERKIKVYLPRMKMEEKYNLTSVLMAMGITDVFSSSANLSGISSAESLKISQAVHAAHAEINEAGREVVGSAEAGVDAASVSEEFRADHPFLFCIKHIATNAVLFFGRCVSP
The data set is described as follows: Affinity test by circular dichroism (CD) titration with albumin. It counts as binding. The conditions noted are these: dye preparation in Ficoll 4% in a phosphate buffer (sterilised). On the procedure:
In fact, even in this sector, one of the most used dyes today is BBG. However, the Applicant has realised that although it can dye proteins, BBG actually has a relatively low affinity with the self-same proteins. […] It should be noticed that, to carry out the tests, the commercial BBG with a purity of 80% was preliminarily purified and the CD spectra were measured in the 800-400 nm region in the presence of increasing quantities of albumin. Finally, in the known way, the value of the association constant was determined using a non-linear regression of the intensity of the dichroic signal expressed in ΔA (AL-AR, where AL and AR respectively indicate the absorbency of the preparation as regards the two circularly polarized light waves used for the circular dichroism study, the left wave and the right wave) depending on the concentration of the egg white albumin, used as a reference. However, on this point what is indicated in the subsequent Affinity Tests section should also be considered. […]
Affinity was determined by means of CD (circular dichroism) spectroscopy. The CD spectra were measured in the 800-400 nm region in the presence of increasing quantities of egg white albumin which, as is known, for analyses of this type is commonly considered to be representative of proteins in general. […]
On the technique in general: CD spectra are sensitive to the conformation of chiral molecules.

For data set [1] the following is noted: equal to 0.03% w/v; DIN EN ISO 10993; cited from earlier work.

`CCOc1ccc(Nc2ccc(/C(=C3C=C/C(=[N+](/CC)Cc4cccc(S(=O)(=O)[O-])c4)C=C/3C)c3ccc(N(CC)Cc4cccc(S(=O)(=O)O)c4)cc3C)cc2)cc1` [BBG-250, Brilliant Blue G 250]: the “association constant Ka” value on egg white albumin is “approximately 60,000 M^−1”. The “concentration at which considered not to be cytotoxic” value in data set [1] is given as at most 0.3 g/I.
